Assay results from the NIST ThermoML archive (doi:10.1016/j.fluid.2013.05.019).
Numbers after ± are expanded uncertainties. One block for each compound: values may come before it.

How the values were obtained:
[1] = Boiling temperature at pressure P; details: 101 kPa; Liquid; Ebulliometric method (Recirculating still)
[2] = Liquid, Manometric method

Boiling temperature at pressure P [1]: 55.73 ± 0.04 °C
SMILES: C=C(C)C(C)C [2,3-dimethyl-1-butene]

Boiling temperature at pressure P [1]: 73.00 ± 0.04 °C
SMILES: CC(C)=C(C)C [2,3-dimethyl-2-butene]

Boiling temperature at pressure P [1]: 115.20 ± 0.04 °C
SMILES: Cc1ccsc1 [3-methylthiophene]

vapor or sublimation pressure ([2]; 370.27 K): 97.43 ± 0.32 kPa
vapor or sublimation pressure ([2]; 370.74 K): 98.52 ± 0.33 kPa
vapor or sublimation pressure ([2]; 370.93 K): 99.39 ± 0.34 kPa
vapor or sublimation pressure ([2]; 371.13 K): 99.78 ± 0.33 kPa
vapor or sublimation pressure ([2]; 371.52 K): 101.07 ± 0.34 kPa
vapor or sublimation pressure ([2]; 372.25 K): 103.43 ± 0.32 kPa
vapor or sublimation pressure ([2]; 372.36 K): 103.56 ± 0.35 kPa
vapor or sublimation pressure ([2]; 372.56 K): 104.41 ± 0.34 kPa
vapor or sublimation pressure ([2]; 372.76 K): 104.67 ± 0.35 kPa
vapor or sublimation pressure ([2]; 372.97 K): 105.83 ± 0.36 kPa
vapor or sublimation pressure ([2]; 373.17 K): 106.29 ± 0.34 kPa
vapor or sublimation pressure ([2]; 373.48 K): 107.02 ± 0.34 kPa
Boiling temperature at pressure P [1]: 98.49 ± 0.04 °C
SMILES: CCCCCCC [heptane]

Boiling temperature at pressure P [1]: 84.27 ± 0.04 °C
SMILES: c1ccsc1 [thiophene]
